Measured values reported in patent US8575107B2, “Clusterin derived peptide” (Compugen Ltd., priority 2008, dated 2013).

Columns and labels:
[1] = system: lung carcinoma cell line A549; assay: MTT assay, CGEN-CL1 and/or paclitaxel on A549 cells; assay type: cell-based, human; settings: single agent
Method: (§1) 20 μl of MTT (3-(4,5-Dimethyl-2-thiazolyl)-2,5-diphenyl-2H-tetrazolium bromide) solution (Sigma Cat#M5655, lot#085k5322, 1 gr was dissolved in 200 ml H2O and filtered, giving a final concentration of 5 mg/ml) was added to each well and incubated for 4 hours at 37° C. after which the medium was vacuumed and 100 μl of DMSO was added to each well. Absorbance was measured in an ELISA reader at 492 nm.
(§2) A549, PC3 and MCF7 cells were seeded at 6000, 8000 and 10,000 cells per well respectively in 150 μl of media (DMEM medium+5% FBS) in 96 well plates.
(§3) Paclitaxel (Sigma T7402, Lot. 036k1217, Mw 853.9, 5 mg dissolved in 585 μl DMSO to a stock concentration of 10 mM, stored at −20° C.) and/or CGEN-CL1 (1 mg dissolved in 250 μl of sodium bi-carbonate to a stock concentration of 4 mg/ml) were added to the wells in 25 μl of medium (final volume of 200 μl) as detailed in Table 3. The relative growth was normalized to controls where neither paclitaxel nor CGEN-CL1 was added to wells.
(§4) An MTT assay was performed as described above in Example 2.

[2] = system: MCF-7 breast cancer cell lines; assay: MTT assay, CGEN-CL1 and/or paclitaxel on MCF-7 cells; assay type: cell-based
Method: as §1, §2, §3, §4

CC(=O)O[C@H]1C(=O)[C@@]2(C)[C@H]([C@H](OC(=O)c3ccccc3)[C@]3(O)C[C@H](OC(=O)[C@H](O)[C@@H](NC(=O)c4ccccc4)c4ccccc4)C(C)=C1C3(C)C)[C@]1(OC(C)=O)CO[C@@H]1C[C@@H]2O [Paclitaxel, reference compound]
maximal effect (inhibition) alone [1]: 50%
Relative Growth ([2]; Paclitaxel 2.25 nM alone): 0.88
Relative Growth ([2]; Paclitaxel 30.00 nM alone): 0.49
